The values below are quoted from earlier work in patent publication US5426034A, “Process for the production and use of a stable 6-phosphogluconolactonase” (Boehringer Mannheim GmbH, priority 1990, dated 1995).

The subject of the data set is 6-phosphogluconolactonase (phosphogluconolactonase) from Zymomonas mobilis. The note with it: Zymomonas enzyme, literature value (Scopes 1985); substrate specificity.

As to `O=C1O[C@H](COP(=O)(O)O)[C@@H](O)[C@H](O)[C@H]1O` [6-phosphogluconolactone], the Michaelis-Menten constant (Km) is 20 to 30 µM.
